The values below come from patent US20260053931A1, “MDM2 TARGETING PROTACS” (THE WISTAR INSTITUTE OF ANATOMY AND BIOLOGY, priority 2023, published 2026).

One series concerns SU-DHL-8. Briefly: Cell death of other cancer cell lines: SU-DHL-8. Conditions: Homo sapiens; SU-DHL-8, Diffuse large B cell lymphoma. Format: cell-based. The procedure: The PROTACs prepared herein were tested for their use in other cancer cell lines to determine activity in multiple different types of cancer.
The subject of series [1] is TNBC patient mammospheres. Kind of series: Patient TNBC 3D mammosphere cultures. Format: cell-based, human. The procedure:
FIGS. 27A-27E show TP53 mutant TNBC patient-derived explants undergo apoptosis following treatment with the MDM2-PROTAC YX-02-030. A. TP53 sequenced in five fresh TNBC patient samples and used in explant and 3D mammosphere cultures. B-C. TNBC patient-derived explants were treated with the compounds indicated and Western blotting (B) and immunohistochemistry (IHC) of FFPE sections for cleaved Caspase-3 (C, n=3 paired patient samples) were performed. Representative images of H&E and cleaved Caspase-3 (CC3) IHC shown, including normal breast epithelium treated with MDM2-PROTAC YX-02-030; scale bar 300 m. D-E. Mammosphere cultures were established from TNBC patient samples, treated with the indicated compounds, and live-cell detection of Caspase-3/7 activity (D, quadruplicate) and mammosphere survival/ATP production (E, quadruplicate) were measured.
For three of the patient TNBC tumor samples there was enough tissue to also establish 3D mammosphere cultures, and for one of these patients, normal breast epithelial tissue was also received that generated loose cell clusters.

Series [2] deals with p53-null mouse sarcoma cells. Kind of series: Murine Mdm2+/+ p53-null sarcoma cells, Western blot and MTT. The format is cell-based.
In a further series the test system is MDA-MB-231 cells. Briefly: Proteomics analysis of degradation selectivity. The format is cell-based, human. Conditions: 5 μM, 8 hours. The procedure: A proteomics analysis was performed to assess the selectivity of degradation by YX-02-030. MDA-MB-231 cells were treated for 8 hours with 5 μM of YX-02-030 or DMSO in triplicate and processed to provide 25 μg of protein loaded on a 10% acrylamide gel. The entire protein-containing gel regions were excised, digested with trypsin and analyzed by liquid chromatography tandem mass spectrometry (LC-MS/MS) using a 240-min gradient as described (Chae et al., 2016). Peptide sequences were identified using MaxQuant 1.6.3.3 (Cox & Mann, 2008). MS/MS spectra were searched against a UniProt human protein database. […] Under these experimental conditions Mdm2 was not able to be detected either in the treated or untreated samples.

Series [3] in a line: In vivo tolerability, nude mice. Also on record: species or system mouse. Conditions: YX-02-030 50 mg/kg IP, YX-02-228 30 mg/kg IP, once daily. The method, then: FIGS. 25A & 25B show the in vivo tolerability tests conducted with the 2 lead Mdm2 PROTACs to evaluate tolerated doses and effects on normal tissues. Nude mice were treated with Mdm2 PROTACs, YX-02-030 (50 mg/kg; IP) and YX-02-228 (30 mg/kg; IP) once daily for 14 days. […] Fresh, surgically-resected tumor from five TNBC patients was obtained, and 80% were from Black/African American patients.
In vivo tolerability tests were conducted with the 2 lead Mdm2 PROTACs to evaluate tolerated doses and effects on normal tissues. Nude mice were treated with Mdm2 PROTACs, YX-02-030 (50 mg/kg; IP) and YX-02-228 (30 mg/kg; IP) once daily for 8 days.

For the next series, the system named is mut p53 MDA-MD-231 cells. Briefly: Live cell count with CellTag700 Stain in ICW format. The settings on record: after 24 h and 48 h treatment. The method, then:
Cells are seeded in 96 half area well plates (black clear bottom) and cultured overnight. Then they are treated with compounds, fixed with 4% paraformaldehyde for 20 minutes, and permeabilized in 0.1% Triton. They are then treated with the primary antibody and secondary antibody conjugated to IRDye800CW or treated with CellTag 700 Stain. The plates are then scanned on the OdysseyCLX and the data processed to provide a dose response curve.
Since genetic deletion of Mdm2 induces p73 and induces apoptosis in p53 mutant and deficient cancer cells, YX-02-030 and YX-02-228 were evaluated for their effect on cell viability. First, the CellTag700 Stain was utilized to count the number of live cells in the ICW format.

Series [4] relates to MDA-MB-231 and MDA-MB-436 cells. Briefly: Colony formation assay. The format is cell-based, human. The arrangement: unit of the concentration uncertain. Conditions: 12 days. The method, then:
FIGS. 21A-21E show the apoptosis induction of p53-inactivated TNBC cells in 2D and 3D cultures by the MDM2-PROTAC YX-02-030. A-B. Colony formation assays (A. Triplicate, 12 days) and mammosphere formation (B. Triplicate 72 hrs) of MDA-MB-231 and MDA-MB-436 cells in the presence of the indicated compounds or DMSO control (−); representative pictures shown. C-E. Formed mammospheres of MDA-MB-231 and MDA-MB-436 cells were treated with the compounds indicated or DMSO control (−), and area (C. n=10 mammospheres, relative to pre-treatment area, 72 hr), real-time imaging (IncuCyte) and quantification of Caspase-3/7 activity (D. n=4-5 wells/compound), and survival/ATP assays (E. Quadruplicate, 72 hr) were performed; representative images shown; scale bar 300 m. Mean±SEM (A-C and E). For A, *P<0.0001 and **P<0.0001, comparing 1 M and 2 M PROTAC, respectively, to control compounds and DMSO vehicle control. For B, *P<0.0046, **P<0.0001, and ***P<0.0001, comparing 0.5 M, 1 M, and 2 M PROTAC, respectively, to control compounds and DMSO vehicle control. For C, *P<0.0001 and **P<0.0001, comparing 2 M and 4 M/6 M PROTAC, respectively, to control compounds and DMSO vehicle control. […]
The ability of the PROTAC-mediated degradation of MDM2 to alter the clonogenic potential of p53-inactivated TNBC cells was evaluated by performing colony formation assays with MDA-MB-231 and MDA-MB-436 cells. […]

Where [5] appears, read: mammospheres from three patient tumors.

`CCOc1cc(C(C)(C)C)ccc1C1=N[C@](C)(c2ccc(Cl)cc2)[C@](C)(c2ccc(Cl)cc2)N1C(=O)N1CCN(CC(=O)NCCOCCOCCOCC(=O)N[C@H](C(=O)N2C[C@H](O)C[C@H]2C(=O)NCc2ccc(-c3scnc3C)cc2)C(C)(C)C)CC1` (racemic) [YX-02-030] came in with an IC50 with SU-DHL-8 of 1.9 µM. In series [1] (setting [5]), the Caspase-3/7 activity entry is “significantly increased Caspase-3/7 activity” and the mammosphere survival entry is recorded as “reduced survival”. In addition, the “effect on normal breast epithelial clusters” value in series [1] (normal breast epithelial tissue of one patient) is “remained largely unaffected”. Moreover, the “p73 and apoptosis (cleaved caspase 3)” value in series [2] (Western blots after 24 hrs) was “stabilized p73 and induced apoptosis”. In series [2] (increasing concentrations, MTT assay, 48 hrs), the “killing of p53-null sarcoma cells” value was “killed p53-null sarcoma cells”. In the series on MDA-MB-231 cells, the observable proteins affected is less than 10% and the “proteins significantly changed out of 4237” value is 31 proteins. In series [3], the blood counts result is given as “no significant change”; the body weight entry was “no significant change in body weight”; the “clinical observations for spleen and bone marrow” value is recorded as “no adverse clinical observations”. Moreover, in the series on mut p53 MDA-MD-231 cells, the “cytotoxic effect, number of live cells” value is listed as “potent cytotoxic effects”. The colony numbers entry in series [4] (1 (unit uncertain)) was “significant reduction in colony numbers”. The colonies formed in series [4] (2 (unit uncertain)) is listed as less than 2 colonies.

As to `CCOc1cc(C(C)(C)C)ccc1C1=N[C@](C)(c2ccc(Cl)cc2)[C@](C)(c2ccc(Cl)cc2)N1C(=O)N1CCN(CC(=O)NCCCNC(=O)COc2ccc3c(c2)CN(C(=O)[C@H](NC(=O)[C@@H](C)NC)C(C)(C)C)[C@@H](C(=O)N[C@H]2CCCc4ccccc42)C3)CC1` [YX-02-228, (R)-7-(2-((3-(2-(4-((4R,5S)-2-(4-(tert-butyl)-2-ethoxyphenyl)-4,5-bis(4-chlorophenyl)-4,5-dimethyl-4,5-dihydro-1H-imidazole-1-carbonyl)piperazin-1-yl)acetamido)propyl)amino)-2-oxoethoxy)-2-((R)-3,3-dimethyl-2-((R)-2-(methylamino)propanamido)butanoyl)-N-((S)-1,2,3,4-tetrahydronaphthalen-1-yl)-1,2,3,4-tetrahydroisoquinoline-3-carboxamide], inhibition in the series on SU-DHL-8 was half-maximal at 4.6 µM (IC50). Moreover, in series [3], the blood counts entry is “no significant change”; the body weight result is “no significant change in body weight”; the “clinical observations for spleen and bone marrow” value was “no adverse clinical observations”. Also, the “cytotoxic effect, number of live cells” value with mut p53 MDA-MD-231 cells is given as “potent cytotoxic effects”.
